Experimental data taken from ChEMBL document CHEMBL1201862, “PubChem BioAssay data set” (2004).
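Following 48 hours of exposure in 96-well plates, responses at five concentrations were used to interpolate endpoints linearly. GI50: concentration for 50% inhibition of growth.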 The source made the active and inactive calls. Cut-off read from the data, not from the text of the source: active = GI50 up to about 1.1 µM and inactive = higher.

Assays:
Assay in all cases: DTP human tumour cell line panel, 48 h
[1] = system: SK-MEL-28
[2] = system: NCI-H23
[3] = system: HT-29
[4] = system: XF498
[5] = system: SN12C
[6] = system: SNB-75
[7] = system: TK-10
[8] = system: Malme-3M
[9] = system: NCI-H226
[10] = system: A549
[11] = system: SF-295
[12] = system: ACHN
[13] = system: MOLT-4
[14] = system: RXF 631
[15] = system: OVCAR-3
[16] = system: EKVX
[17] = system: HCT-116
[18] = system: DMS-114
[19] = system: M19-MEL
[20] = system: CAKI-1
[21] = system: CCRF-CEM
[22] = system: NCI-H460
[23] = system: IGROV-1
[24] = system: LOX IMVI
[25] = system: OVCAR-4
[26] = system: SNB-19
[27] = system: SNB-78
[28] = system: M14
[29] = system: A498
[30] = system: DLD-1
[31] = system: OVCAR-5
[32] = system: HOP-62
[33] = system: COLO 205
[34] = system: UO-31
[35] = system: SK-OV-3
[36] = system: SK-MEL-5
[37] = system: KM-20L2
[38] = system: OVCAR-8
[39] = system: NCI-H522
[40] = system: RPMI-8226
[41] = system: UACC-257
[42] = system: HOP-92
[43] = system: KM12
[44] = system: U-251
[45] = system: SK-MEL-2
[46] = system: SF-268
[47] = system: HCC 2998
[48] = system: HL-60
[49] = system: K562
[50] = system: 786-0
[51] = system: RXF 393
[52] = system: SW-620
[53] = system: SF-539
[54] = system: LXFL 529

Compound: CC1OC(OC2CCCc3c(O)c4c(c(O)c32)C(=O)c2ccccc2C4=O)CC(N)C1O (centres undefined)
- GI50 [1]: 1880 nM (inactive)
- GI50 [2]: 1770 nM (inactive)
- GI50 [3]: 1470 nM (inactive)
- GI50 [4]: 1930 nM (inactive)
- GI50 [5]: 1680 nM (inactive)
- GI50 [6]: 1350 nM (inactive)
- GI50 [7]: 1600 nM (inactive)
- GI50 [8]: 1820 nM (inactive)
- GI50 [9]: 1690 nM (inactive)
- GI50 [10]: 1620 nM (inactive)
- GI50 [11]: 1820 nM (inactive)
- GI50 [12]: 1880 nM (inactive)
- GI50 [13]: 652 nM (active)
- GI50 [14]: 1500 nM (inactive)
- GI50 [15]: 1340 nM (inactive)
- GI50 [16]: 1710 nM (inactive)
- GI50 [17]: 1720 nM (inactive)
- GI50 [18]: 1690 nM (inactive)
- GI50 [19]: 1780 nM (inactive)
- GI50 [20]: 1430 nM (inactive)
- GI50 [21]: 1200 nM (inactive)
- GI50 [22]: 1430 nM (inactive)
- GI50 [23]: 1690 nM (inactive)
- GI50 [24]: 1610 nM (inactive)
- GI50 [25]: 1680 nM (inactive)
- GI50 [26]: 1640 nM (inactive)
- GI50 [27]: 1890 nM (inactive)
- GI50 [28]: 1790 nM (inactive)
- GI50 [29]: 1700 nM (inactive)
- GI50 [30]: 1330 nM (inactive)
- GI50 [31]: 1910 nM (inactive)
- GI50 [32]: 1570 nM (inactive)
- GI50 [33]: 1620 nM (inactive)
- GI50 [34]: 1730 nM (inactive)
- GI50 [35]: 1150 nM (inactive)
- GI50 [36]: 1820 nM (inactive)
- GI50 [37]: 2010 nM (inactive)
- GI50 [38]: 1420 nM (inactive)
- GI50 [39]: 1640 nM (inactive)
- GI50 [40]: 1580 nM (inactive)
- GI50 [41]: 1620 nM (inactive)
- GI50 [42]: 1430 nM (inactive)
- GI50 [43]: 1580 nM (inactive)
- GI50 [44]: 1860 nM (inactive)
- GI50 [45]: 1750 nM (inactive)
- GI50 [46]: 1690 nM (inactive)
- GI50 [47]: 2070 nM (inactive)
- GI50 [48]: 1750 nM (inactive)
- GI50 [49]: 1010 nM (active)
- GI50 [50]: 1290 nM (inactive)
- GI50 [51]: 1020 nM (active)
- GI50 [52]: 1330 nM (inactive)
- GI50 [53]: 1560 nM (inactive)
- GI50 [54]: 1550 nM (inactive)
